Assay results from patent publication US9035073B2, “3-phenyl-3-methoxy-pyrrolidine derivatives useful as modulators of cortical catecholaminergic neurotransmission” (INTEGRATIVE RESEARCH LABORATORIES SWEDEN AB, priority 2008, dated 2015).
Where a name gives a salt, the structure may show the parent alone.

Columns and labels:
[1] = tested on: Serotonin (5-HT) in Prefrontal Cortex; test: Microdialysis in awake and freely moving rats, 5-HT in prefrontal cortex; assay type: in vivo, rat; details: 50 μmol/kg s.c., awake freely moving rats
Source text: (§1) Male Sprague-Dawley rats weighing 220-320 g were used throughout the experiments. Before the experiment the animals were group housed, five animals in each cage, with free access to water and food. The animals were housed at least one week after arrival prior to surgery and use in the experiments. Each rat was used only once for microdialysis.
(§2) We use a modified version (Waters et al., 1994) of the I-shaped probe (Santiago M & Westerink B H C, 1990). The dialysis membrane we use is the AN69 polyacrylonitrile/sodiummethalylsulfonate copolymer (HOSPAL; o.d./i.d. 310/220 μm: Gambro, Lund, Sweden). In the dorsal striatum we use probes with an exposed length of 3 mm of dialysis membrane and in the prefrontal cortex the corresponding length is 2.5 mm. The rats were operated under isoflurane inhalationanesthesia while mounted into a Kopf stereotaxic instrument. Co-ordinates were calculated relative to bregma; dorsal striatum AP +1, ML ±2.6, DV −6.3; Pf cortex, AP +3.2, 8° ML ±1.2, DV −4.0 according to (Paxinos G & Watson C, 1986). The dialysis probe was positioned in a burr hole under stereotaxic guidance and cemented with phosphatine dental cement.
(§3) The rats were housed individually in cages for 48 h before the dialysis experiments, allowing them to recover from surgery and minimizing the risk of drug interactions with the anaesthetic during the following experiments. During this period the rats had free access to food and water. On the day of experiment the rats were connected to a micro perfusion pump via a swiwel and were replaced in the cage where they could move freely within its confinements. The perfusion medium was a Ringer's solution containing in mmol/l: NaCl; 140, CaCl2; 1.2, KCl; 3.0, MgCl2; 1.0 and ascorbic acid; 0.04 according to (Moghaddam B & Bunney B S, 1989). The pump was set to a perfusion speed of 2 μl/min and 40 μl samples were collected every 20 min. Each sample was analyzed at two HPLC systems. On an autoinjector (CMA 200) with a 10-port valve (Valco C10WE), holding two sample loops in series (4 μl and 20 μl), each brain dialysate sample is loaded in both loops simultaneously. […] The currents generated by the two EC detectors are converted to digital data and evaluated using Chromeleon software (Dionex) on a PC. The method sample turn over time was 4.5 min and two parallel experiments are normally analyzed simultaneously on the system. […]

[2] = tested on: Serotonin (5-HT) in Striatum; test: Microdialysis in awake and freely moving rats, 5-HT in striatum; assay type: in vivo, rat; details: 50 μmol/kg s.c., awake freely moving rats
Source text: as §1, §2, §3

[3] = tested on: Dopamine (DA) in Striatum; test: Microdialysis in awake and freely moving rats, DA in striatum; assay type: in vivo, rat; details: 50 μmol/kg s.c., awake freely moving rats
Source text: as §1, §2, §3

[4] = tested on: Dopamine (DA) in Prefrontal Cortex; test: Microdialysis in awake and freely moving rats, DA in prefrontal cortex; assay type: in vivo, rat; details: 50 μmol/kg s.c., awake freely moving rats
Source text: as §1, §2, §3

[5] = tested on: Norepinephrine (NA) in Striatum; test: Microdialysis in awake and freely moving rats, NA in striatum; assay type: in vivo, rat; details: 50 μmol/kg s.c., awake freely moving rats
Source text: as §1, §2, §3

[6] = tested on: Norepinephrine (NA) in Prefrontal Cortex; test: Microdialysis in awake and freely moving rats, NA in prefrontal cortex; assay type: in vivo, rat; details: 50 μmol/kg s.c., awake freely moving rats
Source text: as §1, §2, §3

| melting point [°C] | Structure (SMILES) | 5-HT PFC ± SEM, maximum effect compared to baseline values [1] | 5-HT Stri ± SEM, maximum effect compared to baseline values [2] | DA Stri ± SEM, maximum effect compared to baseline values [3] | DA PFC ± SEM, maximum effect compared to baseline values [4] | NA Stri ± SEM, maximum effect compared to baseline values [5] | NA PFC ± SEM, maximum effect compared to baseline values [6] |
| --- | --- | --- | --- | --- | --- | --- | --- |
| 135 to 136 | CCN1CCC(OC)(c2ccc(F)c(F)c2)C1 (centres unmarked) (as salt: oxalic acid salt) [Example 10, 3-(3,4-difluorophenyl)-1-ethyl-3-methoxypyrrolidine] |  |  |  |  |  |  |
| 105 to 107 | CCN1CCC(OC)(c2cccc(F)c2F)C1 (single isomer, unassigned; (-)) (as salt: fumaric acid salt) [Example 8, (−)-3-(2,3-difluorophenyl)-1-ethyl-3-methoxypyrrolidine] |  |  |  |  |  |  |
| 185 to 187 | COC1(c2cc(F)cc(F)c2)CCNC1 (single isomer, unassigned; (+)) (as salt: oxalic acid salt) [Example 14, (+)-3-(3,5-difluorophenyl)-3-methoxypyrrolidine] |  |  |  |  |  |  |
| 183 to 185 | COC1(c2cccc(Cl)c2F)CCNC1 (single isomer, unassigned; (+)) (as salt: oxalic acid salt) [Example 1, (+)-3-(3-chloro-2-fluorophenyl)-3-methoxypyrrolidine] |  |  |  |  |  |  |
| 182 to 184 | COC1(c2cccc(F)c2F)CCNC1 (single isomer, unassigned; (+)) (as salt: oxalic acid salt) [Example 5, (+)-3-(2,3-difluorophenyl)-3-methoxypyrrolidine] |  |  |  |  |  |  |

Continued, compound first:

| Structure (SMILES) | melting point [°C] | 5-HT PFC ± SEM, maximum effect compared to baseline values [1] | 5-HT Stri ± SEM, maximum effect compared to baseline values [2] | DA Stri ± SEM, maximum effect compared to baseline values [3] | DA PFC ± SEM, maximum effect compared to baseline values [4] | NA Stri ± SEM, maximum effect compared to baseline values [5] | NA PFC ± SEM, maximum effect compared to baseline values [6] |
| --- | --- | --- | --- | --- | --- | --- | --- |
| CCN1CCC(OC)(c2cccc(F)c2F)C1 (single isomer, unassigned; (+)) (as salt: fumaric acid salt) [Example 6, (+)-3-(2,3-difluorophenyl)-1-ethyl-3-methoxypyrrolidine] | 104 to 106 |  |  |  |  |  |  |
| CCN1CCC(OC)(c2cccc(F)c2F)C1 (centres unmarked) (as salt: fumaric acid salt) [Example 13, 3-(2,3-difluorophenyl)-1-ethyl-3-methoxypyrrolidine] | 94 to 98 |  |  |  |  |  |  |
| CCN1CCC(OC)(c2cccc(F)c2F)C1 (single isomer, unassigned; (+)) [Example 6, (+)-3-(2,3-difluorophenyl)-1-ethyl-3-methoxypyrrolidine] |  | 157 ± 6% of control | 138 ± 9% of control | 133 ± 9% of control | 297 ± 18% of control | 113% of control | 285 ± 17% of control |
| COC1(c2cccc(F)c2F)CCNC1 (single isomer, unassigned; (+)) [Example 5, (+)-3-(2,3-difluorophenyl)-3-methoxypyrrolidine] |  | 260 ± 19% of control | 296 ± 55% of control | 116 ± 0% of control | 353 ± 61% of control | 168% of control | 437 ± 25% of control |
| COC1(c2cccc(Cl)c2F)CCNC1 (single isomer, unassigned; (+)) [Example 1, (+)-3-(3-chloro-2-fluorophenyl)-3-methoxypyrrolidine] |  | 327 ± 58% of control | 350 ± 28% of control | 122 ± 8% of control | 459 ± 103% of control | 164 ± 22% of control | 660 ± 38% of control |
| CCN1CCC(OC)(c2cccc(F)c2F)C1 (single isomer, unassigned; (-)) [Example 8, (−)-3-(2,3-difluorophenyl)-1-ethyl-3-methoxypyrrolidine] |  | 197% of control | 187% of control | 119 ± 3% of control | 252% of control | 169 ± 28% of control | 282% of control |
| CCN1CCC(OC)(c2cccc(Cl)c2F)C1 (single isomer, unassigned; (+)) (as salt: fumaric acid salt) [Example 2, (+)-3-(3-chloro-2-fluorophenyl)-1-ethyl-3-methoxypyrrolidine] | 131 to 133 |  |  |  |  |  |  |
